Laboratory results: patent publication US20250325655A1, “VACCINE ADJUVANT, AND PREPARATION METHOD THEREFOR AND USE THEREOF” (CHENGDU MAXVAX BIOTECHNOLOGY LLC, priority 2021, published 2025)

Assays:
[1] = cancer patients, QS-21 dose 100~200 μg, cited from earlier work
[2] = Toxicology studies of the present product; conditions: poly (I:C) adsorbed onto the mixed liposomes
From the text: In order to maintain stability of physical properties of products, the mixed liposomes containing the cationic liposomes and the neutral liposomes (consisting of […]) were chosen in the present disclosure to adsorb poly (I:C). Poly (I:C) adsorbed by the intramuscular administered mixed liposomes could be passively or actively delivered to antigen presenting cells (APCs), to limit its interaction with non-phagocytic cells, and regulate systemic secretion of cytokines generated thereby.

CCC(C)C(CC(O)CC(=O)O[C@@H]1[C@H](O)[C@H](C)O[C@H](OC(=O)[C@@H]2CC(C)(C)C[C@@H]3C4=CCC5[C@@]6(C)CC[C@H](O[C@@H]7O[C@H](C(=O)O)[C@@H](O)[C@H](O[C@H]8OC[C@@H](O)[C@H](O)[C@H]8O)[C@H]7O[C@@H]7O[C@H](CO)[C@H](O)[C@H](O)[C@H]7O)[C@@](C)(C=O)[C@@H]6CC[C@@]5(C)[C@]4(C)C[C@@H](O)C32)[C@H]1O[C@@H]1O[C@@H](C)[C@H](O[C@H]2OC[C@@H](O)[C@H](O[C@H]3OC[C@](O)(CO)[C@H]3O)[C@H]2O)[C@@H](O)[C@H]1O)OC(=O)CC(O)CC(O[C@@H]1O[C@@H](CO)[C@H](O)[C@H]1O)C(C)CC (stereo partly drawn) [QS-21, Quillaja saponaria saponin 21]
erythema and induration at the injection site ([1]; most patients): 2-10 cm | dose-limiting toxicity [1]: No dose-limiting toxicity

polyinosinic: polycytidylic acid [poly (I:C)]
safety [2]: can effectively improve its safety
